Source: patent US20080269291A1, “Chemical Compounds” (priority 2005, published 2008)

Target: T1, Recombinant human IKKβ (residues 1-737) (Homo sapiens, UniProt O14920)
T1 construct: Recombinant human IKKβ (residues 1-737); GST (C); made in house
T1 sequence (O14920 1-737): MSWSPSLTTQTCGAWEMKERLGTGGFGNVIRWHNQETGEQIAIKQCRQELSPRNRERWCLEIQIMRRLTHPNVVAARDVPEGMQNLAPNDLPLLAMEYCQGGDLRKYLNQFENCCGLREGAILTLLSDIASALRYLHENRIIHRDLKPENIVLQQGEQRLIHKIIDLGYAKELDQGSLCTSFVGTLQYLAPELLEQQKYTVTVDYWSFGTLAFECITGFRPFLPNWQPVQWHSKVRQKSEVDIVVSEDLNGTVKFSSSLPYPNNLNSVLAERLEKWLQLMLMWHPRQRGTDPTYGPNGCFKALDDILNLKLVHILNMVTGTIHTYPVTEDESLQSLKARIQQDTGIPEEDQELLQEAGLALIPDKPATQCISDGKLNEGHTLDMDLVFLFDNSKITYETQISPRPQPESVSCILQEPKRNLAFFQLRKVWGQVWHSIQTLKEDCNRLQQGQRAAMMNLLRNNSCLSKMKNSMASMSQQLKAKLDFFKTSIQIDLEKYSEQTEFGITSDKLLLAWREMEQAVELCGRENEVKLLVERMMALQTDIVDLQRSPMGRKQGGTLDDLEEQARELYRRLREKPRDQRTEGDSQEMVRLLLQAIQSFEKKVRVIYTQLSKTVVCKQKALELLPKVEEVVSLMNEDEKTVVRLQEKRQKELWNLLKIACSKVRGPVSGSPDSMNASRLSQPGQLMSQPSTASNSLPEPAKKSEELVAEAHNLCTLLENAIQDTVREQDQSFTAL
Assay: IKK2 Assay (TR-FRET)
Assay type: biochemical
Details: activity against IKK2, IKK2 5 nM, GST-IκBα substrate 25 nM, ATP 1 μM, 30 minutes at room temperature
Method: Recombinant human IKKβ (residues 1-737) was expressed in baculovirus as a C-terminal GST-tagged fusion protein, and its activity was assessed using a time-resolved fluorescence resonance energy transfer (TR-FRET) assay. Briefly, IKK2 (5 nM final) diluted in assay buffer (50 mM HEPES, 10 mM MgCl2, 1 mM CHAPS pH 7.4 with 1 mM DTT and 0.01% w/v BSA) was added to wells containing various concentrations of compound or DMSO vehicle (3% final). The reaction was initiated by the addition of GST-IκBα substrate (25 nM final)/ATP (1 μM final), in a total volume of 30 μL. The reaction was incubated for 30 minutes at room temperature, then terminated by the addition of 15 μL of 50 mM EDTA. Detection reagent (15 μl) in buffer (100 mM HEPES pH 7.4, 150 mM NaCl and 0.1% w/v BSA) containing antiphosphoserine-licBa-32/36 monoclonal antibody 12C2 (Cell Signalling Technology, Beverly Mass., USA) labelled with W-1024 europium chelate (Wallac OY, Turku, Finland), and an APC-labelled anti-GST antibody (Prozyme, San Leandro, Calif., USA) was added and the reaction was further incubated for 60 minutes at room temperature. The degree of phosphorylation of GST-IκBα was measured using a Packard Discovery plate reader (Perkin-Elmer Life Sciences, Pangbourne, UK) as a ratio of specific 665 nm energy transfer signal to reference europium 620 nm signal.

An IC50 of 25.1 µM was found for `CCS(=O)(=O)N1CCC(c2c[nH]c3c(C(N)=O)cc(S(=O)(=O)c4ccc(C)cc4)cc23)CC1` [Example 48, 3-[1-(ethylsulfonyl)-4-piperidinyl]-5-[(4-methylphenyl)sulfonyl]-1H-indole-7-carboxamide] in this work.
